Assay results as given in patent publication US8324245B2, “Quinoline derivative and quinazoline derivative inhibiting self-phosphorylation of hepatocytus proliferator receptor, and medicinal composition containing the same” (Kyowa Hakko Kirin Co., Ltd., priority 2001, dated 2012).

These compounds were tested against T1, met (HGF receptor) in human gastric cancer cells MKN45 (Homo sapiens, UniProt P08581) (assay: Inhibitory activity against met-autophosphorylation using ELISA method (2), MKN45 cells, HGF-independent).
T1 construct: endogenous in cells; host or cells: MKN45 human gastric cancer cells
Assay type: cell-based
Protocol: Cells were cultured with RPMI medium containing 0.1% fetal calf serum in 96-well flat-bottom plate in an amount of 3×10^4 per well, and were incubated at 37° C. overnight. The medium was then replaced by a fresh RPMI medium containing 0.1% fetal calf serum. A solution of the test compound in dimethyl sulfoxide was added to each well, and the incuvation was continued at 37° C. for additional one hr. The medium was removed, the cells were washed with phosphate buffered saline (pH 7.4), and 50 μl of a lysis buffer (20 mM HEPES (pH 7.4), 150 mM NaCl, 0.2% Triton X-100, 10% glycerol, 5 mM sodium orthovanadylate, 5 mM disodium ethylenediaminetetraacetate, and 2 mM Na4P2O7) was then added thereto. The mixture was shaken at 4° C. for 2 hr to prepare a cell extract.
Separately, phosphate buffered saline (50 μl, pH 7.4) containing 5 μg/ml of anti-phospho-tyrosine antibody (PY20; purchased from Transduction Laboratories) was added to a microplate for ELISA (Maxisorp; purchased from NUNC), followed by gentle agitation at 4° C. overnight to coat the surface of the wells with the antibody. After washing of the plate, 300 μl of a blocking solution was added, followed by gentle agitation at room temperature for 2 hr to perform blocking. After washing, the whole quantity of the cell extract was transferred to the wells, and the plate was then allowed to stand at 4° C. overnight. After washing, an anti-HGF receptor antibody (h-Met (C-12), purchased from Santa Cruz Biotechnology) was allowed to react at room temperature for one hr, and, after washing, a peroxidase-labeled anti-rabbit Ig antibody (purchased from Amersham) was allowed to react at room temperature for one hr. After washing, a chromophoric substrate for peroxidase (purchased from Sumitomo Bakelite Co., Ltd.) was added thereto to initiate a reaction. After a suitable level of color development, a reaction termination solution was added to stop the reaction, and the absorbance at 450 nm was measured with a microplate reader.

T1 sequence (P08581 25-1390): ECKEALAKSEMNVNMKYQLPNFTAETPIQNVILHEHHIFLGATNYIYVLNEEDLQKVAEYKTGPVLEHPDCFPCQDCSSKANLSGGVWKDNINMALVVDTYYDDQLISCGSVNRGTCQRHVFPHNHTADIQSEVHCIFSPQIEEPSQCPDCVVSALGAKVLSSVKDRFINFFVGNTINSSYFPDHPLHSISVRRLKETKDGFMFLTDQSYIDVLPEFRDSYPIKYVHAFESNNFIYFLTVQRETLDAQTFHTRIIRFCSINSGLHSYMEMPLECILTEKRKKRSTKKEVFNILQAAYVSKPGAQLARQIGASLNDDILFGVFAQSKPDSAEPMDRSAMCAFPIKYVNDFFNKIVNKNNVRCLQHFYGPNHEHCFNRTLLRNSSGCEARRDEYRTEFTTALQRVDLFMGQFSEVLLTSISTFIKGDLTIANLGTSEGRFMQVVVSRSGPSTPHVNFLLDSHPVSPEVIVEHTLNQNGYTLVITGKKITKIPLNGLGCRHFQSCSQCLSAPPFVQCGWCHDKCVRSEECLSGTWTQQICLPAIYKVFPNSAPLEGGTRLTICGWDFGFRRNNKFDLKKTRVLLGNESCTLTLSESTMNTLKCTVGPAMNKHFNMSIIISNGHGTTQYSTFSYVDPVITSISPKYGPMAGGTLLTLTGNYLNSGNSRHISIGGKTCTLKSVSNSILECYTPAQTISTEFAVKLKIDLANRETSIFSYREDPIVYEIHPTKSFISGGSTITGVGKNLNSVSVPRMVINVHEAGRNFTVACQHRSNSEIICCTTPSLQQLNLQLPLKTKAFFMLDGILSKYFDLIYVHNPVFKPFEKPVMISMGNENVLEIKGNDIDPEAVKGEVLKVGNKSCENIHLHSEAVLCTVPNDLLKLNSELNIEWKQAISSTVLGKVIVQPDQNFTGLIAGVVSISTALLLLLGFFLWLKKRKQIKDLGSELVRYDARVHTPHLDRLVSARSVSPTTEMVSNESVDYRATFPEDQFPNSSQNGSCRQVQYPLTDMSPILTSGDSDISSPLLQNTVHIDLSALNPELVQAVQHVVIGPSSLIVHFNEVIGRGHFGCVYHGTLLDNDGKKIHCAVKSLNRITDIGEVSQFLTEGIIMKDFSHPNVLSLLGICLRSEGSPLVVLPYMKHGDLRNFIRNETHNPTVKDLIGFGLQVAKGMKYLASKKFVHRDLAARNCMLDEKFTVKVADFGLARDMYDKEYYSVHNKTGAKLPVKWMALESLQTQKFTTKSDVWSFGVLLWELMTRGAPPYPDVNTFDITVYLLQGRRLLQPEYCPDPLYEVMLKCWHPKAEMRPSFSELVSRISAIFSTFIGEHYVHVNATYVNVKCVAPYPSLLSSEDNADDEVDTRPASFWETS

| SMILES | IC50 [nM] |
| --- | --- |
| COc1cc2nccc(Oc3ccc(NC(=S)NC(=O)Cc4ccccc4C)c(F)c3)c2cc1OC [Example 170, 1-[4-(6,7-dimethoxyquinolin-4-yloxy)-2-fluorophenyl]-3-(2-o-tolylacetyl)thiourea] | 274 |
| COc1cc2c(Oc3ccc(NC(=O)NC(=O)Cc4ccc(F)cc4)cc3F)ccnc2cc1OCCN1CCOCC1 [Example 55, 1-{3-fluoro-4-[6-methoxy-7-(2-morpholin-4-yl-ethoxy)quinolin-4-yloxy]phenyl}-3-[2-(4-fluorophenyl)-acetyl]urea] | 245 |
| CCN(CC)CCOc1cc2nccc(Oc3ccc(NC(=S)NC(=O)Cc4ccc(F)cc4)cc3F)c2cc1OC [Example 275, 1-{4-[7-(2-Diethylamino-ethoxy)-6-methoxy-quinolin-4-yloxy]-3-fluoro-phenyl}-3-[2-(4-fluoro-phenyl)-acetyl]-thiourea] | 23 |
| COc1cc2nccc(Oc3ccc(NC(=O)NC(=O)Cc4cc(F)ccc4F)cc3F)c2cc1OC [Example 133, 1-[2-(2,5-difluorophenyl)acetyl]-3-[4-(6,7-dimethoxyquinolin-4-yloxy)-3-fluorophenyl]urea] | 261 |
| COc1cc2nccc(Oc3ccc(NC(=O)CC(=O)NCCC(C)(C)C)cc3)c2cc1OC [Example 221, N-[4-(6,7-dimethoxyquinolin-4-yloxy)phenyl]-N′-(3,3-dimethyl-butyl)malonamide] | 221 |
| COc1cc2nccc(Oc3ccc(NC(=O)NC(=O)Cc4ccccc4C(F)(F)F)c(F)c3)c2cc1OC [Example 136, 1-[4-(6,7-dimethoxyquinolin-4-yloxy)-2-fluorophenyl]-3-[2-(2-trifluoromethylphenyl)acetyl]urea] | 342 |
| COc1cc2nccc(Oc3ccc(NC(=S)NC(=O)Cc4cccc(F)c4)c(F)c3)c2cc1OC [Example 74, 1-[4-(6,7-dimethoxyquinolin-4-yloxy)-2-fluoro-phenyl]-3-[2-(3-fluorophenyl)acetyl]thiourea] | 182 |
| COc1cc2c(Oc3ccc(NC(=O)NC(=O)Cc4ccc(F)cc4)cc3F)ccnc2cc1OCCN1CCCCC1 [Example 48, 1-{3-fluoro-4-[6-methoxy-7-(2-piperidin-1-yl-ethoxy)quinolin-4-yloxy]phenyl}-3-[2-(4-fluorophenyl)-acetyl]urea] | 224 |
| COc1cc2nccc(Oc3ccc(NC(=S)NC(=O)CCCC(C)C)cc3F)c2cc1OC [Example 179, 1-[4-(6,7-dimethoxyquinolin-4-yloxy)-3-fluorophenyl]-3-(5-methyl-hexanoyl)thiourea] | 261 |
| COc1cc2nccc(Oc3ccc(NC(=O)NC(=O)Nc4ccccn4)cc3)c2cc1OC [Example 236, N-(2-pyridyl)-({[4-(6,7-dimethoxyquinolin-4-yloxy)anilino]carbonyl}amino)methanamide] | 235 |
| COc1cc2nccc(Oc3cc(C)c(NC(=O)CC(=O)Nc4ccc(F)cc4F)cc3C)c2cc1OC [Example 224, N-(2,4-difluorophenyl)-N′-[4-(6,7-dimethoxy-quinolin-4-yloxy)-2,5-dimethylphenyl]malonamide] | 316 |
| COc1cc2nccc(Oc3ccc(NC(=O)NC(=O)Nc4cccc(F)c4)cc3)c2cc1OC [Example 251, N-(3-fluorophenyl)-({[4-(6,7-dimethoxy-quinolin-4-yloxy)anilino]carbonyl}amino)methanamide] | 386 |
| COc1cc2nccc(Oc3ccc(NC(=O)NC(=O)Cc4ccccc4)c(F)c3)c2cc1OC [Example 16, 1-[4-(6,7-dimethoxyquinolin-4-yloxy)-2-fluoro-phenyl]-3-phenylacetylurea] | 32.8 |
| COc1cc2c(Oc3ccc(NC(=O)NC(=O)Cc4ccccc4)cc3F)ccnc2cc1OCCN1CCCCC1 [Example 13, 1-{3-fluoro-4-[6-methoxy-7-(2-piperidin-1-yl-ethoxy)quinolin-4-yloxy]phenyl}-3-phenylacetylurea] | 141 |
| COc1cc2nccc(Oc3ccc(NC(=O)NC(=O)CC4C5CCC4CC5)cc3Cl)c2cc1OC (centres unmarked) [Example 128, 1-(2-bicyclo[2.2.1]hepto-7-ylacetyl)-3-[3-chloro-4-(6,7-dimethoxyquinolin-4-yloxy)phenyl]urea] | 285 |
| COc1cc2c(Oc3ccc(NC(=O)NC(=O)Cc4ccccc4F)cc3F)ccnc2cc1OCCCN1CCCC1 [Example 294, 1-{3-Fluoro-4-[6-methoxy-7-(3-pyrrolidin-1-yl-propoxy)-quinolin-4-yloxy]-phenyl}-3-[2-(2-fluoro-phenyl)-acetyl]-urea] | 23 |

| SMILES | IC50 [nM] |
| --- | --- |
| COc1cc2nccc(Oc3ccc(NC(=O)NC(=O)Cc4cccc(F)c4F)cc3F)c2cc1OC [Example 139, 1-[2-(2,3-difluorophenyl)acetyl]-3-[4-(6,7-dimethoxyquinolin-4-yloxy)-3-fluorophenyl]urea] | 243 |
| COc1cc2c(Oc3ccc(NC(=O)NC(=O)Cc4ccccc4)cc3F)ccnc2cc1OCCN1CCOCC1 [Example 54, 1-{3-fluoro-4-[6-methoxy-7-(2-morpholin-4-yl-ethoxy)quinolin-4-yloxy]phenyl}-3-phenylacetylurea] | 26.1 |
| COc1cc2nccc(Oc3ccc(NC(=S)NC(=O)Cc4cccc(Cl)c4)c(F)c3)c2cc1OC [Example 172, 1-[2-(3-chlorophenyl)acetyl]-3-[4-(6,7-dimethoxyquinolin-4-yloxy)-2-fluorophenyl]thiourea] | 423 |
| COc1cc2c(Oc3ccc(NC(=O)NC(=O)Cc4ccccc4)cc3F)ccnc2cc1OCCCCN1CCN(C)CC1 [Example 12, 1-(3-fluoro-4-{6-methoxy-7-[4-(4-methyl-piperazin-1-yl)-butoxy]quinolin-4-yloxy}phenyl)-3-phenylacetylurea] | 199 |
| COc1ccccc1NC(=O)NC(=O)Nc1ccc(Oc2ccnc3cc(OC)c(OC)cc23)cc1 [Example 266, N-(2-methoxyphenyl)-({[4-(6,7-dimethoxy-quinolin-4-yloxy)anilino]carbonyl}amino)methanamide] | 181 |
| COc1cc2nccc(Oc3ccc(NC(=S)NC(=O)Cc4ccc(C)cc4)c(F)c3)c2cc1OC [Example 92, 1-[4-(6,7-dimethoxyquinolin-4-yloxy)-2-fluoro-phenyl]-3-(2-p-tolylacetyl)thiourea] | 148 |
| COc1cc2nccc(Oc3ccc(NC(=S)NC(=O)COc4ccccc4)cc3Cl)c2cc1OC [Example 157, 1-[3-chloro-4-(6,7-dimethoxyquinolin-4-yloxy)phenyl]-3-(2-phenoxyacetyl)thiourea] | 482 |
| COc1cc2nccc(Oc3ccc(NC(=O)NC(=O)Nc4c(F)cccc4F)cc3)c2cc1OC [Example 265, N-(2,6-difluorophenyl)-({[4-(6,7-dimethoxy-quinolin-4-yloxy)anilino]carbonyl}amino)methanamide] | 259 |
| COc1cc2c(Oc3ccc(NC(=S)NC(=O)Cc4ccccc4)cc3F)ccnc2cc1OCCN1CCC(CO)CC1 [Example 284, 1-(3-Fluoro-4-{7-[2-(4-hydroxymethyl-piperidin-1-yl)-ethoxy]-6-methoxy-quinolin-4-yloxy}-phenyl)-3-phenylacetyl-thiourea] | 15 |
| COc1cc2c(Oc3ccc(NC(=S)NC(=O)Cc4ccccc4F)cc3F)ccnc2cc1OCC(O)CN1CCCCC1 (centres unmarked) [Example 318, 1-(3-Fluoro-4-[7-(2-hydroxy-3-piperidin-1-yl-propoxy)-6-methoxy-quinolin-4-yloxy]-phenyl)-3-[2-(2-fluoro-phenyl)-acetyl]-thiourea] | 28.3 |
| CCCCNC(=O)CC(=O)Nc1ccc(Oc2ccnc3cc(OC)c(OC)cc23)cc1 [Example 209, N-butyl-N′-[4-(6,7-dimethoxyquinolin-4-yloxy)phenyl]malonamide] | 928 |
| COc1cc2nccc(Oc3ccc(NC(=O)C(C)(C)C(=O)Nc4ccc(F)cc4F)cc3)c2cc1OC [Example 104, N-(2,4-difluorophenyl)-N′-[4-(6,7-dimethoxy-quinolin-4-yloxy)phenyl]-2,2-dimethylmalonamide] | 344 |
| COc1cc2nccc(Oc3ccc(NC(=O)NC(=O)Nc4ccccc4-n4cccc4)cc3)c2cc1OC [Example 259, N-[2-(1H-1-pyrrolyl)phenyl]-({[4-(6,7-dimethoxyquinolin-4-yloxy)anilino]carbonyl}amino)-methanamide] | 614 |
| COc1cc2nccc(Oc3ccc(NC(=O)NC(=O)CSC4CCCCC4)cc3)c2cc1OC [Example 113, 1-(2-cyclohexylsulfanylacetyl)-3-[4-(6,7-dimethoxyquinolin-4-yloxy)phenyl]urea] | 653 |
| COc1cc2nccc(Oc3ccc(NC(=O)NC(=O)Nc4ccccc4F)cc3)c2cc1OC [Example 252, N-(2-fluorophenyl)-({[4-(6,7-dimethoxy-quinolin-4-yloxy)anilino]carbonyl}amino)methanamide] | 301 |
| COc1cc2nccc(Oc3ccc(NC(=O)NC(=O)Nc4ccc(F)cc4F)cc3)c2cc1OC [Example 229, N-(2,4-difluorophenyl)-({[4-(6,7-dimethoxy-quinolin-4-yloxy)anilino]carbonyl}amino)methanamide] | 273 |
